Earlier results, collected in US20100048679A1, “POLYNUCLEOTIDE THERAPY” (Bayhill Therapeutics, Inc., priority 2006, published 2010).
Where two headings read alike, the source gives them in different places.

Test system: patients

| Molecule | Significant side effects (MS patients, literature) | Significant side effects (in vivo) |
| --- | --- | --- |
| O=C1c2c(O)ccc(O)c2C(=O)c2c(NCCNCCO)ccc(NCCNCCO)c21 [mitoxantrone] | myelosuppression with increased risk for infections |  |
| natalizumab [Tysabri] | decreases lymphocyte trafficking |  |
| interferon β | flu-like symptoms |  |
| glatiramer acetate |  | allergic reactions |
